Tested on: MDA-MB-231 cells
Assay: Extracellular lactate production inhibition after 4 h, MDA-MB-231
Settings: Homo sapiens, MDA-MB-231
Method: Extracellular Lactate Production Inhibition after 4 h
Cells were plated in growth media supplemented with 10% FBS, followed by overnight recovery at 37° C., 5% CO2. […] Plates were then moved for 4 h incubation at 37° C., 5% CO2 with subsequent 20 μl media transfer to empty 384-well transparent plates. […] Plates were short-spun and measured kinetically in absorbance mode (530 nm, 12 min measurement time with 2-minute intervals between subsequent readouts at 30° C.). Differences in the signal between T8 min and T0min were normalized to vehicle (cells w/ 0.25% DMSO) and quasi-positive (LCIS buffer w/ 0.25% DMSO) controls and plotted against logarithmically-transformed test compound concentrations with fitting the 4-parameter model in GraphPad Prism software.

Row | Structure (SMILES) | IC50
1 | C#CCOc1ccnc2c(S(=O)(=O)Nc3ccccc3C#Cc3ccc(C(=O)O)nc3)cccc12 [Compound 354, 5-(2-{2-[4-(prop-2-yn-1-yloxy)quinoline-8-sulfonamido]phenyl}ethynyl)pyridine-2-carboxylic acid] | 100 to 1000 nM
2 | COc1cc(C#Cc2ccccc2NS(=O)(=O)c2cccc3ccccc23)ccc1C(=O)O [Compound 62, 2-methoxy-4-{2-[2-(naphthalene-1-sulfonamido)phenyl]ethynyl}benzoic acid] | 100 to 1000 nM
3 | Cc1cc(C#Cc2ccccc2NS(=O)(=O)c2cccc3cccnc23)cnc1C(=O)O [Compound 59, 3-methyl-5-{2-[2-(quinoline-8-sulfonamido)phenyl]ethynyl}pyridine-2-carboxylic acid] | 100 to 1000 nM
4 | Cc1c(S(=O)(=O)Nc2ccccc2C#Cc2ccc(C(=O)O)cc2)sc2ccc(Cl)cc12 [Compound 22, 4-{2-[2-(5-chloro-3-methyl-1-benzothiophene-2-sulfonamido)phenyl]ethynyl}benzoic acid] | 100 to 1000 nM
5 | Cc1cc(C#Cc2ccccc2NS(=O)(=O)c2ccc3ccccc3c2)cnc1C(=O)O [Compound 49, 3-methyl-5-{2-[2-(naphthalene-2-sulfonamido)phenyl]ethynyl}pyridine-2-carboxylic acid] | 100 to 1000 nM
6 | COc1ccccc1-c1cccc(CN(C=O)c2ccccc2C#Cc2ccc(C(=O)O)nc2)c1 [Compound 179, 5-(2-{2-[N-({2′-methoxy-[1,1′-biphenyl]-3-yl}methyl)formamido]phenyl}ethynyl) pyridine-2-carboxylic acid] | 100 to 1000 nM
7 | COC(=O)c1ccc(C#Cc2ccccc2NS(=O)(=O)c2cccc(-c3cccnc3)c2)cn1 [Compound 131, methyl 5-(2-{2-[3-(pyridin-3-yl)benzenesulfonamido]phenyl}-ethynyl)pyridine-2-carboxylate] | 100 to 1000 nM
8 | O=C(O)c1ccc(C#Cc2ccccc2NS(=O)(=O)c2cc(F)cc3cccnc23)cn1 [Compound 294, 5-{2-[2-(6-fluoroquinoline-8-sulfonamido)phenyl]ethynyl}pyridine-2-carboxylic acid] | 100 to 1000 nM
9 | COc1ccc(S(=O)(=O)Nc2ccccc2C#Cc2ccc(C(=O)O)nc2C)c2ncccc12 [Compound 130, 5-{2-[2-(5-methoxyquinoline-8-sulfonamido)phenyl]ethynyl}-6-methylpyridine-2-carboxylic acid] | 1000 to 100000 nM
10 | O=C(O)c1ccc(C#Cc2ccccc2NS(=O)(=O)c2cc3ccccc3s2)cc1 [Compound 276, 4-{2-[2-(1-benzothiophene-2-sulfonamido)phenyl]ethynyl}benzoic acid] | 1000 to 100000 nM
11 | O=C(O)c1ccc(C#Cc2ccccc2NS(=O)(=O)c2cc3ccccc3o2)cn1 [Compound 89, 5-{2-[2-(1-benzofuran-2-sulfonamido)phenyl]ethynyl}pyridine-2-carboxylic acid] | 1000 to 100000 nM
12 | CCNc1ccnc2c(S(=O)(=O)Nc3ccccc3C#Cc3ccc(C(=O)O)nc3)cccc12 [Compound 426, 5-[2-(4-Ethylamino-quinoline-8-sulfonylamino)-phenylethynyl]-pyridine-2-carboxylic acid] | 1000 to 100000 nM
13 | Cc1cc(S(=O)(=O)Nc2ccccc2C#Cc2cnc(C(=O)O)c(Cl)c2)c2ncccc2c1 [Compound 335, 3-chloro-5-{2-[2-(6-methylquinoline-8-sulfonamido)phenyl]ethynyl}pyridine-2-carboxylic acid] | 1000 to 100000 nM
14 | O=C(O)c1ccc(C#Cc2ccccc2CS(=O)(=O)c2ccc3ccccc3c2)cc1 [Compound 6, 4-(2-{2-[(naphthalene-2-sulfonyl)methyl]phenyl}ethynyl)benzoic acid] | 100 to 1000 nM
15 | Cc1cc(C#Cc2ccccc2NS(=O)(=O)c2ccc3ccccc3c2)ccc1C(=O)O [Compound 10, 2-methyl-4-{2-[2-(naphthalene-2-sulfonamido)phenyl]ethynyl}benzoic acid] | 100 to 1000 nM
16 | O=C(O)c1ccc(C#Cc2ccccc2NS(=O)(=O)c2ccc3c(c2)Cc2ccccc2-3)cc1 [Compound 87, 4-{2-[2-(9H-fluorene-2-sulfonamido)phenyl]ethynyl}benzoic acid] | 100 to 1000 nM
17 | Cc1cc(C#Cc2cc(F)ccc2NS(=O)(=O)c2ccc(-c3ccccc3)cc2)cnc1C(=O)O [Compound 308, 5-[2-(2-{[1,1′-biphenyl]-4-sulfonamido}-5-fluorophenyl)ethynyl]-3-methylpyridine-2-carboxylic acid] | 100 to 1000 nM
18 | CSc1nccc(-c2ccc(S(=O)(=O)Nc3ccccc3C#Cc3ccc(C(=O)O)cc3)s2)n1 [Compound 282, 4-[2-(2-{5-[2-(methylsulfanyl)pyrimidin-4-yl]thiophene-2-sulfonamido}phenyl)-ethynyl]benzoic acid] | 1000 to 100000 nM
19 | O=C(O)c1ccc(C#Cc2ccccc2NS(=O)(=O)c2cccc3c2OC(F)(F)O3)cc1 [Compound 251, 4-[2-(2,2-Difluoro-benzo[1,3]dioxole-4-sulfonylamino)-phenylethynyl]-benzoic acid] | 1000 to 100000 nM
20 | O=C(O)c1ccc(C#Cc2ccccc2NS(=O)(=O)c2cc3ccccc3o2)cc1 [Compound 73, 4-{2-[2-(1-benzofuran-2-sulfonamido)phenyl]ethynyl}benzoic acid] | 100 to 1000 nM
21 | NCCOCCOCCOCCOc1ccnc2c(S(=O)(=O)Nc3ccccc3C#Cc3cnc(C(=O)O)c4ccccc34)cccc12 [Compound 443, 4-(2-{2-[4-(2-{2-[2-(2-aminoethoxy)ethoxy]ethoxy}ethoxy)quinoline-8-sulfonamido]phenyl}-ethynyl)isoquinoline-1-carboxylic acid] | 1000 to 100000 nM
22 | O=C(O)c1ccc(C#Cc2ccccc2NS(=O)(=O)c2ccc3c(c2)[nH]c2ccccc23)cn1 [Compound 124, 5-{2-[2-(9H-carbazole-2-sulfonamido)phenyl]ethynyl}pyridine-2-carboxylic acid] | 100 to 1000 nM
23 | Cc1ccc(S(=O)(=O)Nc2ccccc2C#Cc2ccc(C(=O)O)cc2)c2ccccc12 [Compound 75, 4-{2-[2-(4-methylnaphthalene-1-sulfonamido)phenyl]ethynyl}benzoic acid] | 100 to 1000 nM
24 | COc1cc(C(=O)O)ncc1C#Cc1ccccc1NS(=O)(=O)N1CCC2CCCCC21 (centres unmarked) [Compound 219, 4-methoxy-5-(2-{2-[(octahydro-1H-indole-1-sulfonyl)amino]phenyl}ethynyl)pyridine-2-carboxylic acid] | 100 to 1000 nM
25 | Cc1ccc2cccnc2c1S(=O)(=O)Nc1ccccc1C#Cc1cnc(C(=O)O)c(CO)c1 [Compound 399, 3-(hydroxymethyl)-5-{2-[2-(7-methylquinoline-8-sulfonamido)phenyl]ethynyl}pyridine-2-carboxylic acid] | 100 to 1000 nM
26 | COc1ccc2cccc(S(=O)(=O)Nc3ccccc3C#Cc3ccc(C(=O)O)nc3)c2n1 [Compound 117, 5-{2-[2-(2-methoxyquinoline-8-sulfonamido)phenyl]ethynyl}pyridine-2-carboxylic acid] | 100 to 1000 nM

Results, then the compound that gave them:

Row | IC50 | Structure (SMILES)
27 | 100 to 1000 nM | COc1cc(C)c(S(=O)(=O)Nc2ccccc2C#Cc2ccc(C(=O)O)nc2)c(C)c1C [Compound 277, 5-{2-[2-(4-methoxy-2,3,6-trimethyl-benzenesulfonamido)phenyl]ethynyl}-pyridine-2-carboxylic acid]
28 | 10 to 100 nM | COc1ccc(NS(=O)(=O)c2ccc(OC)c3cccnc23)c(C#Cc2ccc(C(=O)O)nc2)c1 [Compound 397, 5-[5-Methoxy-2-(5-methoxy-quinoline-8-sulfonylamino)-phenylethynyl]-pyridine-2-carboxylic acid]
29 | 10 to 100 nM | O=C(O)c1ccc(C#Cc2ccccc2NS(=O)(=O)c2ccc(OC(F)(F)F)c3cccnc23)cn1 [Compound 384, 5-[2-(5-Trifluoromethoxy-quinoline-8-sulfonylamino)-phenylethynyl]-pyridine-2-carboxylic acid]
30 | 10 to 100 nM | Cn1c2ccccc2c2cc(S(=O)(=O)Nc3ccccc3C#Cc3ccc(C(=O)O)nc3)ccc21 [Compound 227, 5-{2-[2-(9-methyl-9H-carbazole-3-sulfonamido)phenyl]ethynyl}pyridine-2-carboxylic acid]
31 | 10 to 100 nM | COC(=O)c1ccc(C#Cc2ccccc2NS(=O)(=O)c2ccc3c(c2)Cc2ccccc2-3)cn1 [Compound 132, methyl 5-{2-[2-(9H-fluorene-2-sulfonamido)phenyl]ethynyl}pyridine-2-carboxylate]
32 | 10 to 100 nM | O=C(O)c1ccc(C#Cc2ccccc2NS(=O)(=O)c2c(Cl)ccc3c(Cl)ccnc23)cn1 [Compound 302, 5-{2-[2-(4,7-dichloroquinoline-8-sulfonamido)phenyl]ethynyl}pyridine-2-carboxylic acid]
33 | 10 to 100 nM | COc1ccc(S(=O)(=O)Nc2ccccc2C#Cc2cnc(C(=O)O)cc2Cl)c2ncccc12 [Compound 159, 4-chloro-5-{2-[2-(5-methoxyquinoline-8-sulfonamido)phenyl]ethynyl}pyridine-2-carboxylic acid]
34 | 10 to 100 nM | CCOc1ccc(S(=O)(=O)Nc2ccccc2C#Cc2cnc(C(=O)O)c3ccccc23)c2ncccc12 [Compound 442, 4-{2-[2-(5-ethoxyquinoline-8-sulfonamido)phenyl]ethynyl}iso-quinoline-1-carboxylic acid]
35 | 10 to 100 nM | O=C(O)c1ccc(C#Cc2ccccc2NS(=O)(=O)N2CCC[C@H]3CCCC[C@@H]32)cn1 [Compound 162, 5-[2-(2-{[(4aR,8aS)-decahydroquinoline-1-sulfonyl]amino}phenyl)ethynyl]pyridine-2-carboxylic acid]
36 | 10 to 100 nM | CCOC(=O)c1ccc(C#Cc2ccccc2NS(=O)(=O)c2ccc(OC)c3cccnc23)cn1 [Compound 165, ethyl 5-{2-[2-(5-methoxyquinoline-8-sulfonamido)phenyl]ethynyl}pyridine-2-carboxylate]
37 | 1 to 10 nM | CNc1cc(C#Cc2ccccc2NS(=O)(=O)c2ccc(OC)c3cccnc23)cnc1C(=O)O [Compound 212, 5-{2-[2-(5-methoxyquinoline-8-sulfonamido)phenyl]ethynyl}-3-(methylamino)pyridine-2-carboxylic acid]
38 | 10 to 100 nM | Cc1cc(C(=O)O)ncc1C#Cc1ccccc1NS(=O)(=O)c1c(C)ccc2cccnc12 [Compound 107, 4-methyl-5-{2-[2-(7-methylquinoline-8-sulfonamido)phenyl]ethynyl}pyridine-2-carboxylic acid]
